Results as given in PubChem BioAssay (NCI).
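Results reflect a 48-hour exposure of cells in 96-well plates to compound at five concentrations. Abbreviation: GI50, concentration required for 50% inhibition of growth. TGI denotes the concentration required for complete inhibition of growth.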 Peptide text beside a SMILES is read from it. * marks the point of attachment. OSu = O=C1CCC(=O)N1O*; OBn = c1ccc(CO*)cc1; Bn = c1ccc(C*)cc1

Experiments:
Experiment in all cases: NCI anticancer screen, dose series, 48 h
OVCAR-8 ovarian = system: OVCAR-8 ovarian
MOLT-4 leukemia = system: MOLT-4 leukemia
KM12 colon = system: KM12 colon
SR leukemia = system: SR leukemia
OVCAR-4 ovarian = system: OVCAR-4 ovarian
K-562 leukemia = system: K-562 leukemia
OVCAR-5 ovarian = system: OVCAR-5 ovarian
HCC-2998 colon = system: HCC-2998 colon
PC-3 prostate = system: PC-3 prostate
T-47D breast = system: T-47D breast

Row | SMILES | TGI (OVCAR-8 ovarian) [µM] | TGI (MOLT-4 leukemia) [µM] | TGI (KM12 colon) [µM] | TGI (SR leukemia) [µM] | TGI (OVCAR-4 ovarian) [µM] | TGI (K-562 leukemia) [µM] | TGI (OVCAR-5 ovarian) [µM] | TGI (HCC-2998 colon) [µM] | TGI (PC-3 prostate) [µM] | TGI (T-47D breast) [µM] | GI50 (KM12 colon) [µM] | GI50 (OVCAR-4 ovarian) [µM] | GI50 (PC-3 prostate) [µM]
1 | NC(CNc1ccc(O)cc1)C(=O)O (stereo unspecified) | > 100 | > 100 | > 100 | > 100 | 31.7 | > 100 | > 100 |  |  |  |  |  | 
2 | CCOC(=O)/C=C1/Nc2cc(F)c(F)cc2NC1=O | > 100 | > 100 | > 100 |  | > 100 | > 100 | > 100 | > 100 | > 100 |  |  |  | 
3 | Cc1oc2c(C)c3oc(=O)cc(C)c3cc2c1CN | > 100 | > 100 | > 100 |  | > 100 | > 100 | > 100 | 64.7 |  |  |  |  | 
4 | CC1=CC(=O)/C(=C/N2CCNC2=S)C(=O)O1 | > 100 | > 100 | > 100 |  | > 100 | > 100 | > 100 | > 100 | > 100 | > 100 |  |  | 
5 | CCCCNCC(O)c1cc(-c2ccc(C(F)(F)F)cc2)nc(-c2ccc(C(F)(F)F)cc2)c1 (stereo unspecified) |  |  | 3.6 |  | 3.93 |  |  |  | 3.05 |  | 1.81 | 2.11 | 1.52
6 | CCOC(=O)CCC(NC(=O)c1ccc(NCc2ccc3nc(-c4ccccc4)c(Cl)nc3c2)c2ccccc12)C(=O)OCC (stereo unspecified) | > 100 | 27.9 | > 100 |  | > 100 | > 100 | > 100 | > 100 | > 100 | > 100 |  |  | 
7 | O=C(NC(CO)CO)c1ccc2cc(C(=O)N3CC(CCl)c4ccc([N+](=O)[O-])cc43)[nH]c2c1 (stereo unspecified) | > 100 | > 100 | > 100 |  | > 100 | > 100 | > 100 | > 100 | > 100 | 64.2 |  |  | 
8 | CC(C)CC(NC(=O)C(N)CCC(=O)OCc1ccccc1)C(=O)NC(COCc1ccccc1)C(=O)NC(Cc1ccccc1)C(=O)ON1C(=O)CCC1=O (stereo unspecified) (H-E(OBn)LS(Bn)F-OSu; configuration not given here) | > 100 | 62.8 | > 100 | 85.4 | > 100 |  | 66.9 |  | 63.2 |  |  |  | 
9 | CCc1cc2c(oc3c4ccccc4ccc23)c(=O)[nH]1 | > 10 | > 10 | > 10 | > 10 | > 10 | > 10 | > 10 |  | > 10 |  |  |  | 
10 | CC(CC(C)(C)[N+](C)(C)C)[N+](C)(C)C (stereo unspecified) | > 100 | > 100 | > 100 | > 100 | > 100 | > 100 | > 100 | > 100 | > 100 |  |  |  | 
11 | C/C(=N\n1c(Cc2ccccc2)n[nH]c1=O)c1ccc([N+](=O)[O-])cc1 | > 100 | > 100 | > 100 |  | > 100 | > 100 | > 100 |  | > 100 | > 100 |  |  | 
12 | O=C(CCC(=O)OCC1OC(O)(CC2OC(CO)C(O)C(O)C2O)C(O)C1O)OCc1ccccc1 (stereo unspecified) | > 100 |  | > 100 |  | > 100 | > 100 | > 100 | > 100 | > 100 | > 100 |  |  | 
13 | Cc1ccc(CC(=O)Nc2ccc(NC(=O)CNC(=O)/C=C/c3ccc(-c4ccccc4)cc3)cc2C(=O)c2ccccc2)cc1 | 3.27 | 15.3 | 14.5 | 4.95 |  | 10.3 | 23.1 | 4.98 | 4.07 | 3.89 |  |  | 
14 | C=CCc1cccc2cc(C(=O)Nc3nc(C45CC6CC(CC(C6)C4)C5)cs3)c(=O)oc12 | > 100 | > 100 | > 100 | > 100 | 51.5 | > 100 | > 100 | > 100 | > 100 |  |  |  | 
15 | Cc1nc2sccn2c1C(=O)OCCOCCOCCOCCOC(=O)c1c(C)nc2sccn12 | > 100 | > 100 | > 100 | > 100 | > 100 | > 100 | > 100 | > 100 | > 100 |  |  |  | 
16 | COc1cc(C2C3=C(N=C4SC(C(C)=O)=C(C)N42)c2ccccc2CC3)cc(OC)c1OC (stereo unspecified) | > 100 |  | > 100 |  | > 100 | 85.2 | > 100 | > 100 | > 100 | 50.9 |  |  | 
17 | Cc1ccc(C2(c3ccc(C)c(O)c3C)CCN(C)CC2)c(C)c1O | > 100 | > 100 | > 100 | > 100 | > 100 | > 100 | > 100 |  | > 100 | > 100 |  |  | 
18 | CN1N(c2ccccc2)C(=O)C2=NC=C(C#N)C(=N)C21C (stereo unspecified) | > 100 | > 100 | > 100 | > 100 | > 100 | > 100 | > 100 | > 100 | > 100 |  |  |  | 
19 | CCCC1C(C#N)(C#N)C(C#N)=C(N)C1(C)C(C)=O (stereo unspecified) | > 100 | > 100 | > 100 |  |  | > 100 | > 100 | > 100 | > 100 | > 100 |  |  | 
20 | CC12CCC(C1)C(C)(C)C2OC(=O)c1ccccc1C(=O)O (stereo unspecified) | > 100 | > 100 | > 100 |  | > 100 | > 100 | > 100 | > 100 | > 100 | > 100 |  |  | 
21 | O=[N+]([O-])c1ccc(Cl)cc1N/N=C/c1cccs1 | > 100 | > 100 | > 100 | > 100 | > 100 | > 100 |  | > 100 | > 100 | > 100 |  |  | 
22 | CCOC(=O)c1ccc(NC(NC(=O)CC)(C(F)(F)F)C(F)(F)F)cc1 | > 100 | > 100 | > 100 | > 100 |  | > 100 | > 100 | > 100 | > 100 | > 100 |  |  | 
23 | CN1CCN(c2c(O)c3c(c(O)c2Cl)C(=O)C=CC3=O)CC1 | 0.656 |  | 3.93 |  | 1.37 | 0.659 | 2.93 | 3.99 | 3.27 | 4.25 |  |  | 
